Test results as given in patent publication EP0102564A2, “Method for the removal of toxins bound to protein or lipid from blood or blood fractions, and use of certain compounds as liberating agents” (FRAUNHOFER-GESELLSCHAFT ZUR FÖRDERUNG DER ANGEWANDTEN …, priority 1982, dated 1984).

Key:
BSA = BSA (Bos taurus, UniProt P02769); experiment: Adsorption of ET on activated carbon after prior release by uncoupler, BSA, batch; parameters: species or system Rind; conditions: uncoupler pre-adsorbed on SCII, then 30 mg AK
Procedure: In dieser Versuchsreihe wurde das Zusammenwirken aller bisher betrachteten Parameter im Batch erprobt. 1 ml ET-Lösung (2170/umol ET/1 PBS) wurden für ca. 18 Stunden bei 37°C mit 40 mg BSA inkubiert. Nach dieser Zeit beträgt die ET-Konzentration lediglich 5% des Ausgangswerts (d.h. 95% des ET sind an das BSA gebunden). Nun erfolgte die Zugabe von 150/ul Entkoppler (K-Cystein = 115, Fig. 7, Kurve a; K-Glutathion = 30, Fig. 8, Kurve a). Die Abkopplung des ET wird verfolgt, bis keine Zunahme der ET-Konzentration mehr eintritt. Bei der Verwendung von Cystein erfolgt die Freisetzung schneller als bei Glutathion.
Nun wurden 30 mg SCII (vorher in PBS entgast) zu den Proben hinzugegeben. Die ET-Konzentration nimmt nun rasch ab. Die gesamte Restmenge beträgt nach 45 Minuten nur noch ca. 5% des Anfangswerts. Es wurden also 95% der vorgegebenen Thiolmenge von 30 mg AK entfernt.
In einer weiteren Versuchsreihe wurde untersucht, ob der Entkoppler auch wirksam ist, wenn er zuvor an Aktivkohle adsorbiert wurde. Dazu wurden 30 mg SCII mit den Entkoppler-Lösungen 2 Stunden inkubiert. Diese vorbeladene Kohle wurde dann statt der Entkoppler-Lösung eingesetzt. Fig. 7 und 8 (jeweils Kurve b) zeigen den Abkopplungsvorgang. Die freie ET-Konzentration steigt in beiden Fällen nicht auf den Anfangswert an. Dem Freisetzungsprozeß ist eine Adsorption überlagert. Sie liegt bei AK-Glutathion um ca. 50% tiefer als bei AK-Cystein. Nach Zugabe von 30 mg AK (in PBS entgast) fällt die ET-Konzentration schnell ab. Nach 45 Minuten beträgt die adsorbierte Menge bei Verwendung von Cystein ca. 97%, bei Verwendung von Glutathion ca. 95%.

Plasma = experiment: Removal of protein-bound ET from plasma; conditions: for Restkonzentration an ET nach Adsorption an AK mit vorheriger Freisetzung durch Entkoppler: 30 mg AK, 45 min, relative to initial value
[1] = test system: Ethanthiol, Proteinbindung; conditions: molar ratio of uncoupler to toxin; toxin Ethanthiol (Methanthiol)

Sequence of BSA (P02769 25-607): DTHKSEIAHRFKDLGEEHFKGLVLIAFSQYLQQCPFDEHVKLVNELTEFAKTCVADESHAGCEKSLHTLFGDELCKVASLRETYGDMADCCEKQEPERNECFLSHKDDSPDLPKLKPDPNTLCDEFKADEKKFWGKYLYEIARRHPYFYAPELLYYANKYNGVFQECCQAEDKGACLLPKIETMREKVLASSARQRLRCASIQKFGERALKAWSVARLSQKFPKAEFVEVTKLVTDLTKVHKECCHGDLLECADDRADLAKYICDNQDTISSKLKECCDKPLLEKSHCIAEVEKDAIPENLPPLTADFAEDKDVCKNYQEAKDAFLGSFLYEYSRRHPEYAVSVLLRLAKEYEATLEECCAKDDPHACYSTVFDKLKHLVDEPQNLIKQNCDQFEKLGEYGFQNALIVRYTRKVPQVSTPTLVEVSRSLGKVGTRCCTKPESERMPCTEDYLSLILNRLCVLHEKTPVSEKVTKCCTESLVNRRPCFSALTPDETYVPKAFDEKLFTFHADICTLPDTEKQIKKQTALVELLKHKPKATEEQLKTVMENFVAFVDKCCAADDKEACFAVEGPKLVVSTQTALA

N[C@@H](CCC(=O)N[C@@H](CS)C(=O)NCC(=O)O)C(=O)O [Glutathion, red., Glutathion, reduziert]
adsorbierte Menge nach 45 Minuten (BSA): ca. 95% | Entkopplung (Plasma; ET rises again after final addition of Cystein): keine 100%ige Entkopplung | Restkonzentration an ET nach Adsorption an AK mit vorheriger Freisetzung durch Entkoppler (Plasma; uncoupler added directly): 15% | Restkonzentration an ET nach Adsorption an AK mit vorheriger Freisetzung durch Entkoppler (Plasma; uncoupler pre-adsorbed on AK): 16% | K-Werte [1]: ca. 100
